Test results reported in patent publication US9999650B2, “Peptide and peptidomimetic inhibitors” (Ra Pharmaceuticals, Inc., priority 2012, dated 2018).
Numbered stars: 1 amine (or outer) side, 2 acyl side, 3 side chain; on linkers, the order of the positions; unused ones are H or OH. Bridge positions count the residues as written; N and C are the ends. Square brackets hold non-standard residues; d marks the D form. Peptide text beside a SMILES is read from it. * marks the point of attachment. Trp(5-Cl) = N[C@@H](Cc1c[nH]c2ccc(Cl)cc12)C(=O)O; Trp(7-aza) = N[C@@H](Cc1c[nH]c2ncccc12)C(=O)O; Phe(3-Cl) = N[C@@H](Cc1cccc(Cl)c1)C(=O)O; Phe(4-Cl) = N[C@@H](Cc1ccc(Cl)cc1)C(=O)O; X6 = Nc1ccc(CCC(N[*:1])C(=O)[*:2])cn1; X3 = O=C(C(Cc1ccc(Br)s1)N[*:1])[*:2]; mXylylene = c1cc(C[*:1])cc(C[*:2])c1; X8 = CC(C)(C)[C@H](N*)c1ccccn1; dPhg = N[C@@H](C(=O)O)c1ccccc1; Chg = N[C@H](C(=O)O)C1CCCCC1; Phg = N[C@H](C(=O)O)c1ccccc1; Tle = CC(C)(C)[C@H](N)C(=O)O; αMeP = C[C@@]1(C(=O)O)CCCN1; Ac5c = NC1(C(=O)O)CCCC1; Dab = NCC[C@H](N)C(=O)O; Thp = NC1(C(=O)O)CCOCC1; Aib = CC(C)(N)C(=O)O; Mpa = O=C(O)CCS

target: T1, human plasma kallikrein (Homo sapiens, UniProt P03952); assay: Enzyme inhibition assay (fluorogenic substrate H-Pro-Phe-Arg-AMC); assay type: biochemical; settings: Kallikrein inhibitory activity; 1 nM activated human kallikrein, 500 μM H-Pro-Phe-Arg-AMC, 1 hour room temperature; read-out: Avg. IC50
T1 construct: purchased Enzyme Research Laboratories HPKa 1303
T1 sequence (P03952 20-390 limits assumed): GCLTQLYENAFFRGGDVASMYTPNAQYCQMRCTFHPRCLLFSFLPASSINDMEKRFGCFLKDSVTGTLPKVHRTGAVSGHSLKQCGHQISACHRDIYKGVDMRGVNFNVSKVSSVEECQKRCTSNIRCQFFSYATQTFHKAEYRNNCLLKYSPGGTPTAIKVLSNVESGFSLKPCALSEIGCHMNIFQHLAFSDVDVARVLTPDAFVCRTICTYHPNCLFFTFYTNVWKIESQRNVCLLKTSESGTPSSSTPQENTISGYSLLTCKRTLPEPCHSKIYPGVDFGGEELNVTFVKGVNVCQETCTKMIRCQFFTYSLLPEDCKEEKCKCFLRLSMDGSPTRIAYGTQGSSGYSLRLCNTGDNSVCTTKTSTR
T1 sequence (P03952 391-638 limits assumed): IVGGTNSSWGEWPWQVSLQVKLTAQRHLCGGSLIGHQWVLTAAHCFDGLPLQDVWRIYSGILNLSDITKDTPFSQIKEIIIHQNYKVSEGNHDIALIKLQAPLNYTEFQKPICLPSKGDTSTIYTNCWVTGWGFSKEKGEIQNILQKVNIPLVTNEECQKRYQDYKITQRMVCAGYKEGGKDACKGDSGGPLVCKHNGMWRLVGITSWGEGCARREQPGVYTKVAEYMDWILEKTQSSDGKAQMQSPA
Method: Activated human plasma kallikrein (Enzyme Research Laboratories, HPKa 1303) was reacted with H-Pro-Phe-Arg-7-amido-4-methylcoumarin (H-Pro-Pre-Arg-AMC) (a fluorogenic substrate for plasma as well as pancreatic and urinary kallikreins; Bachem I-1295) and candidate inhibitory peptides to determine the IC50 of the inhibitor.
Ten 8-fold serial dilutions of peptides (10 mM DMSO stocks) were performed in DMSO and then added to TCNB (50 mM Tris-HCl pH 7.2, 150 mM NaCl, 10 mM CaCl2, 0.05% Brij-35) and sonicated. 50 μL of the peptide dilutions were added to microtitre plates (96 well, black non-binding surface, Corning, 3650) and incubated for 5 minutes at room temperature with 4 nM activated human kallikrein (final concentration after addition of fluorogenic substrate: 1 nM). The samples were then incubated for 1 hour at room temperature with 2 mM H-Pro-Phe-Arg-AMC (final concentration 500 μM). Relative Fluorescence Units (RFU) were measured at excitation/emission 360 nm/460 nm by a SpectraMax M3.

Row | Structure (SMILES) | IC50 [µM]
1 | C[C@@H]1NC(=O)C2(CCOCC2)NC(=O)CCSCc2cccc(c2)CSC[C@@H](C(=O)N[C@@H](Cc2c[nH]c3ncccc23)C(=O)N[C@H](C(N)=O)C(C)(C)C)NC(=O)[C@H](C2CCCCC2)NC1=O [Compound R2147, [mXylyl(1,5)](des-NH2)C-AcPyr-A-Chg-C-AzaTrp-Tbg-NH2] ([Mpa][Thp]A[Chg]C[Trp(7-aza)][Tle]-NH2; linker 1-5 via mXylylene) | > 2.19
2 | C[C@@H]1NC(=O)C(C)(C)NC(=O)CCSCc2cccc(c2)CSC[C@@H](C(=O)N[C@@H](CCCNC(=N)N)C(=O)O)NC(=O)[C@H](C2CCCCC2)NC1=O [Compound R2153, [mXylyl(1,5)](des-NH2)C-Aib-A-Chg-CR-OH] ([Mpa][Aib]A[Chg]CR-OH; linker 1-5 via mXylylene) | > 8.88
3 | CC[C@H](C)[C@@H]1NC(=O)[C@H](CO)NC(=O)CSCc2cccc(c2)CSC[C@@H](C(=O)N[C@@H](CCCNC(=N)N)C(=O)N[C@H](C(N)=O)C(C)C)NC1=O [Compound R2154, [mXylyl(1,4)](2-SAc)-SICRV-NH2] | > 7.93
4 | CC(=O)N[C@H](C(=O)N[C@H]1CSCc2cccc(c2)CSC[C@@H](C(N)=O)NC(=O)[C@H](C)NC(=O)[C@H](C(C)C)NC(=O)[C@H](CCCNC(=N)N)NC1=O)C1CCCCC1 [Compound R2159, [mXylyl(2,6)]Ac-Chg-CR-V-AC-NH2] (Ac-[Chg]CRVAC-NH2; linker 2-6 via mXylylene) | > 20.1
5 | CC(=O)N[C@H](C(=O)N[C@H]1CSCc2cccc(c2)CSC[C@@H](C(N)=O)NC(=O)[C@@H]2CCCN2C(=O)[C@H](C(C)C)NC(=O)[C@H](CCCNC(=N)N)NC1=O)C1CCCCC1 [Compound R2160, [mXylyl(2,6)]Ac-Chg-CR-V-PC-NH2] (Ac-[Chg]CRVPC-NH2; linker 2-6 via mXylylene) | > 100
6 | C[C@@H]1NC(=O)C2(CCCC2)NC(=O)CCSCc2cccc(c2)CSC[C@@H](C(=O)N[C@@H](CCCNC(=N)N)C(=O)N[C@H](C(N)=O)C(C)(C)C)NC(=O)[C@H](C2CCCCC2)NC1=O [Compound R2169, [mXylyl(1,5)](des-NH2)C-(Cyclo-L)-A-Chg-CR-Tbg-NH2] ([Mpa][Ac5c]A[Chg]CR[Tle]-NH2; linker 1-5 via mXylylene) | 0.0019
7 | CNC(=O)[C@@H](NC(=O)[C@H](CCCNC(=N)N)NC(=O)[C@@H]1CSCc2cccc(c2)CSCCC(=O)NC2(CCCC2)C(=O)N[C@@H](C)C(=O)N[C@@H](C2CCCCC2)C(=O)N1)C(C)C [Compound R2178, [mXylyl(1,5)](des-NH2)C-(Cyclo-L)-A-Chg-CR-V-NHCH3] ([Mpa][Ac5c]A[Chg]CRV-NHMe; linker 1-5 via mXylylene) | 0.0032
8 | CC(C)(C)[C@H](NC(=O)[C@H](CCCNC(=N)N)NC(=O)[C@@H]1CSCc2cccc(c2)CSCCC(=O)N2CCC[C@@]2(C)C(=O)N[C@@H](C2CCCCC2)C(=O)N1)C(N)=O [Compound R2180, [mXylyl(1,4)](des-NH2)C-(a-Me)P-Chg-CR-Tbg-NH2] ([Mpa][αMeP][Chg]CR[Tle]-NH2; linker 1-4 via mXylylene) | 0.0068
9 | CC(C)[C@H](NC(=O)[C@H](CCCNC(=N)N)NC(=O)[C@@H]1CSCc2cccc(c2)CSCCC(=O)N2CCC[C@H]2C(=O)N[C@@H](C2CCCCC2)C(=O)N1)C(=O)O [Compound R2183, [mXylyl(1,4)](des-NH2)C-P-Chg-CR-V-OH] ([Mpa]P[Chg]CRV-OH; linker 1-4 via mXylylene) | > 3.5
10 | CC(C)(C)[C@H](NC(=O)[C@H](CCCNC(=N)N)NC(=O)[C@@H]1CSCc2cccc(c2)CSCCC(=O)N2CCC[C@H]2C(=O)N[C@H](c2ccccc2)C(=O)N1)C(N)=O [Compound R2187, [mXylyl(1,4)](des-NH2)C-P-(D)Phg-CR-Tbg-NH2] ([Mpa]P[dPhg]CR[Tle]-NH2; linker 1-4 via mXylylene) | > 4.7
11 | CC(C)(C)[C@H](NC(=O)[C@H](CCCNC(=N)N)NC(=O)[C@@H]1CSCc2cccc(c2)CSCCC(=O)N2CCC[C@H]2C(=O)N[C@@H](c2ccccc2)C(=O)N1)C(N)=O [Compound R2188, [mXylyl(1,4)](des-NH2)C-P-Phg-CR-Tbg-NH2] ([Mpa]P[Phg]CR[Tle]-NH2; linker 1-4 via mXylylene) | 0.0034
12 | N=C(N)NCCC[C@H](NC(=O)[C@@H]1CSCc2cccc(c2)CSCCC(=O)N2CCC[C@H]2C(=O)N[C@@H](C2CCCCC2)C(=O)N1)C(=O)O [Compound R2195, [mXylyl(1,4)](des-NH2)C-P-Chg-CR-OH] ([Mpa]P[Chg]CR-OH; linker 1-4 via mXylylene) | > 175
13 | CC(C)(C)[C@H](NC(=O)[C@H](CCCNC(=N)N)NC(=O)[C@@H]1CSCc2cccc(c2)CSCCC(=O)N2CCC[C@H]2C(=O)N[C@@H](C2CCCCC2)C(=O)N1)c1ccccn1 [Compound R2196, [mXylyl(1,4)](des-NH2)C-P-Chg-CR-(S)-2,2-dimethyl-1-(pyridin-2-yl)propan-1-amine] ([Mpa]P[Chg]CR-X8; linker 1-4 via mXylylene) | 0.0356
14 | CC(C)C[C@H](NC(=O)[C@@H](NC(=O)[C@H](CCCNC(=N)N)NC(=O)[C@@H]1CSCc2cccc(c2)CSCCC(=O)N2CCC[C@H]2C(=O)N[C@@H](c2ccccc2)C(=O)N1)C(C)(C)C)C(=O)O [Compound R2202, [mXylyl(1,4)](des-NH2)C-P-Phg-CR-Tbg-L-OH] ([Mpa]P[Phg]CR[Tle]L-OH; linker 1-4 via mXylylene) | 0.0588
15 | CC(C)[C@H](NC(=O)C(CCc1ccc(N)nc1)NC(=O)[C@@H]1CSCc2cccc(c2)CSCCC(=O)N2CCC[C@H]2C(=O)N[C@@H](C2CCCCC2)C(=O)N1)C(N)=O (stereo partly drawn) [Compound R2203, [mXylyl(1,4)](des-NH2)C-P-Chg-C-2-amino-4-(6-aminopyridin-3-yl)butanoic acid-V-NH2] ([Mpa]P[Chg]C[X6]V-NH2; linker 1-4 via mXylylene) | > 10
16 | CC(C)(C)[C@H](NC(=O)[C@H](Cc1ccc(Cl)cc1)NC(=O)[C@@H]1CSCc2cccc(c2)CSCCC(=O)N2CCC[C@H]2C(=O)N[C@@H](c2ccccc2)C(=O)N1)C(N)=O [Compound R2205, [mXylyl(1,4)](des-NH2)C-P-Phg-C-4-Cl-Phe-Tbg-NH2] ([Mpa]P[Phg]C[Phe(4-Cl)][Tle]-NH2; linker 1-4 via mXylylene) | > 75
17 | CC(C)(C)[C@H](NC(=O)[C@H](Cc1ccc(Cl)cc1)NC(=O)[C@@H]1CSCc2cccc(c2)CSCCC(=O)N2CCC[C@H]2C(=O)N[C@H](c2ccccc2)C(=O)N1)C(N)=O [Compound R2206, [mXylyl(1,4)](des-NH2)C-P-(D)Phg-C-4-Cl-Phe-Tbg-NH2] ([Mpa]P[dPhg]C[Phe(4-Cl)][Tle]-NH2; linker 1-4 via mXylylene) | > 75
18 | CC(C)(C)[C@H](NC(=O)[C@H](Cc1cccc(Cl)c1)NC(=O)[C@@H]1CSCc2cccc(c2)CSCCC(=O)N2CCC[C@H]2C(=O)N[C@@H](c2ccccc2)C(=O)N1)C(N)=O [Compound R2207, [mXylyl(1,4)](des-NH2)C-P-Phg-C-3-Cl-Phe-Tbg-NH2] ([Mpa]P[Phg]C[Phe(3-Cl)][Tle]-NH2; linker 1-4 via mXylylene) | > 75
19 | CC(C)(C)[C@H](NC(=O)[C@H](Cc1c[nH]c2ccc(Cl)cc12)NC(=O)[C@@H]1CSCc2cccc(c2)CSCCC(=O)N2CCC[C@H]2C(=O)N[C@@H](c2ccccc2)C(=O)N1)C(N)=O [Compound R2209, [mXylyl(1,4)](des-NH2)C-P-Phg-C-5-C1-Trp-Tbg-NH2] ([Mpa]P[Phg]C[Trp(5-Cl)][Tle]-NH2; linker 1-4 via mXylylene) | > 75
20 | CC(C)(C)[C@H](NC(=O)[C@H](Cc1c[nH]c2ccc(Cl)cc12)NC(=O)[C@@H]1CSCc2cccc(c2)CSCCC(=O)N2CCC[C@H]2C(=O)N[C@H](c2ccccc2)C(=O)N1)C(N)=O [Compound R2210, [mXylyl(1,4)](des-NH2)C-P-(D-Phg)-C-5-C1-Trp-Tbg-NH2] ([Mpa]P[dPhg]C[Trp(5-Cl)][Tle]-NH2; linker 1-4 via mXylylene) | > 75
21 | CC(C)(C)[C@H](NC(=O)[C@H](CCN)NC(=O)[C@@H]1CSCc2cccc(c2)CSCCC(=O)N2CCC[C@H]2C(=O)N[C@@H](c2ccccc2)C(=O)N1)C(N)=O [Compound R2211, [mXylyl(1,4)](des-NH2)C-P-Phg-C-Dab-Tbg-NH2] ([Mpa]P[Phg]C[Dab][Tle]-NH2; linker 1-4 via mXylylene) | > 75
22 | CC(C)(C)[C@H](NC(=O)[C@H](CCN)NC(=O)[C@@H]1CSCc2cccc(c2)CSCCC(=O)N2CCC[C@H]2C(=O)N[C@H](c2ccccc2)C(=O)N1)C(N)=O [Compound R2212, [mXylyl(1,4)](des-NH2)C-P-(D-Phg)-C-Dab-Tbg-NH2] ([Mpa]P[dPhg]C[Dab][Tle]-NH2; linker 1-4 via mXylylene) | > 100
23 | CC(C)(C)[C@H](NC(=O)C(Cc1ccc(Br)s1)NC(=O)[C@@H]1CSCc2cccc(c2)CSCCC(=O)N2CCC[C@H]2C(=O)N[C@@H](c2ccccc2)C(=O)N1)C(N)=O (stereo partly drawn) [Compound R2219, [mXylyl(1,4)](des-NH2)C-P-Phg-C-ABP-Tbg-NH2] ([Mpa]P[Phg]C[X3][Tle]-NH2; linker 1-4 via mXylylene) | > 100
24 | CC(C)(C)[C@H](NC(=O)C(Cc1ccc(Br)s1)NC(=O)[C@@H]1CSCc2cccc(c2)CSCCC(=O)N2CCC[C@H]2C(=O)N[C@H](c2ccccc2)C(=O)N1)C(N)=O (stereo partly drawn) [Compound R2220, [mXylyl(1,4)](des-NH2)C-P-(D-Phg)-C-ABP-Tbg-NH2] ([Mpa]P[dPhg]C[X3][Tle]-NH2; linker 1-4 via mXylylene) | > 100
